Results: US8293700B2, “Anti-bacterial composition especially for controlling gram-negative bacteria, comprising a peptide and an advantageously hydrophobic anti-bacterial agent” (Cellectis, priority 2003, dated 2012)
Where no end group is shown, it is not given here.

Assays:
[1] = test system: Escherichia coli ATCC 25922; experiment: Internalization of DPV fluorescent conjugates in E. coli (epifluorescence microscopy); type: cell-based; conditions: tested as Bodipy conjugate, 1 μM, 30 minutes at 37° C., non-fixed bacteria
Protocol: (§1) The bacteria in an exponential phase of culture were centrifuged and washed three times with the 10 mM, pH7.4 sodium phosphate buffer (NAPB buffer). The bacterial concentration was adjusted to 1×10^6 cfu/ml (colony-forming units) in the NAPB buffer. 50 μl of the bacterial suspension was deposited on a poly-L-Lysine slide. After 30 minutes incubation at 37° C. in a humid chamber, the bacteria immobilized on the slide were rinsed three times with the NAPB buffer. A 50 μl solution of DPV-Bodipy or DPV-TMR conjugate or control product was, deposited on the bacteria. After incubation for 30 minutes at 37° C. in a humidity chamber and away from light, the slides were rinsed three times with the NAPB buffer. The bacteria may be fixed on the slide by incubating 20 minutes at 37° C., away from light. A drop of 50% PBS/Glycerol was deposited on the slide and covered by a cover glass. After sealing the cover glass on the slide, bacterial fluorescence was observed under a Leica epifluorescence optical microscope (40× or 63× immersion lens). The images were taken with a digital Nikon Coolpix camera with maximum zoom and a 0.63× adapter. A more detailed analysis was performed with a confocal Bio-rad MRC 600 microscope (BIO-RAD Microscience Ltd., Hemel Hempstead, England), provided with an inverse optical microscope and an ×100 immersion lens. The bacteria were visualized by their fluorescence after excitation with a krypton/argon laser. Several sections of 0.1-0.2 μm bacteria were made.
The immobilized bacteria on a poly-L-Lysine slide were incubated with 1 μM of DPV-Bodipy conjugate for 30 minutes at 37° C.
The E. coli bacteria were incubated for 30 minutes at 37° C. with 1 μM of DPV-Bodipy conjugate, as described in paragraph I.8.a. The internalization of fluorescent DPV-Bodipy conjugates in the non-fixed bacteria was visualized under an epifluorescence microscope. […] With the DPV11 and DPV12 peptides (FIGS. 31 and 3J), heterogeneous fluorescence levels in one single bacterial population was obtained. The internalization properties of these peptides were weaker. […] (FIG. 3L).
The internalization of the DPV3 TMR conjugate was evaluated on E. coli bacteria immobilized on a poly-L-Lysine slide or in suspension. The bacteria were incubated with 1 μM of DPV3-TMR conjugate or the Cyst-TMR control for 30 minutes at 37° C., and then either fixed or not on the slide before visualization in an epifluorescence optical microscope.

[2] = test system: Gram-negative bacterium (E. coli, P. aeruginosa); experiment: Classification of DPVs by internalization level in the two bacterial strains; type: cell-based; conditions: for Classification of DPVs: level of internalization: DPV-Bodipy conjugates, accumulation in bacterial cytoplasm, E. coli and P. aeruginosa; for Internalization properties in prokaryotic cells (Gram-negative bacteria): compared with the eukaryotic cell
Protocol: as §1
Generally, the internalization of DPV is almost identical for the two bacterial strains that were studied.

[3] = test system: eukaryotic cells; conditions: cited from earlier work; for Localization in the eukaryotic cells: chemically coupled to the peroxydase protein or IgG, WO 01/64738
[4] = test system: P. aeruginosa; experiment: Confocal microscopy localization in P. aeruginosa; type: cell-based, Pseudomonas aeruginosa; conditions: 3 μM, 37° C., 30 mins., bacteria fixed
Protocol: as §1, with “A more detailed analysis was performed with a confocal Bio-rad MRC 600 microscope (BIO-RAD Microscience Ltd., Hemel Hempstead, England), provided with an inverse optical microscope and an ×100 immersion lens.” left out, “Several sections of 0.1-0.2 μm bacteria were made.” left out

[5] = test system: E. coli ATCC 25922; experiment: Chessboard method, DPV peptide and erythromycin, E. coli; type: cell-based, Escherichia coli; conditions: MH medium, 18 hours at 37° C.
Protocol: The dilution ranges were prepared according to a geometric progression of ration 2. 25 μl of the product solutions in MH medium with a concentration four times higher than the desired final concentration or 25 μl of the MH medium (for the lines 0), were distributed in the wells according to the chart below (Table 2), in order to obtain a final volume of 50 μl per well: An isolated colony of the bacterium E. coli ATCC 25922 or P. aeruginosa ATCC 27853 was placed in suspension in 3 to 5 ml of the MH culture medium and incubated at 37° C. for one night, while stirring. From this night culture, a culture in exponential growth phase of the strain was made; the MH medium was seeded at 1/50 é with the night culture and incubated for two hours at 37° C., while stirring. The bacterial concentration was adjusted to 5×10^5-10 s cfu/ml (colony-forming units) in the MH medium. […] The CMI was expressed in μg/ml (mg/1). […] An index below or equal to 0.5 indicates a synergy, an index above 2, an antagonism.

[6] = test system: Pseudomonas aeruginosa ATCC 27853; experiment: Internalization of DPV-Bodipy conjugates in P. aeruginosa (epifluorescence microscopy); type: cell-based; conditions: tested as Bodipy conjugate, 1 μM, 30 minutes at 37° C.
Protocol: as §1, with “A more detailed analysis was performed with a confocal Bio-rad MRC 600 microscope (BIO-RAD Microscience Ltd., Hemel Hempstead, England), provided with an inverse optical microscope and an ×100 immersion lens.” left out, “Several sections of 0.1-0.2 μm bacteria were made.” left out

Row | Substance | Internalization in E. coli (description of FIG. 3) [1] | Classification of DPVs: level of internalization [2] | Localization in the eukaryotic cells [3] | Localization of Bodipy conjugate in P. aeruginosa (confocal, FIG. 6) [4] | CMI, product alone [5] | Internalization properties in prokaryotic cells (Gram-negative bacteria) [2] | Internalization properties in the eukaryotic cell [3] | Internalization in P. aeruginosa compared with E. coli (FIG. 5) [6]
1 | Arg Lys Lys Arg Arg Arg Glu Ser Arg Arg Ala Arg Arg Ser Pro Arg His Leu (RKKRRRESRRARRSPRHL; C-terminal Cys; listed as Homo sapiens) [DPV3.10] | highly penetrating | elevated internalization | cytoplasmic localization peptides |  |  |  |  | 
2 | Val Lys Arg Gly Leu Lys Leu Arg His Val Arg Pro Arg Val Thr Arg Met Asp Val (VKRGLKLRHVRPRVTRMDV; N-terminal Cys added; listed as Homo sapiens) [DPV1047] |  | weak internalization | nuclear localization peptides |  |  |  |  | 
3 | RKKRRRESRKKRRRES [DPV3] | highly penetrating | elevated internalization | cytoplasmic localization peptides | able to pass through the external membrane | 128 µg/mL |  |  | 
4 | Gly Lys Arg Lys Lys Lys Gly Lys Leu Gly Lys Lys Arg Asp Pro (GKRKKKGKLGKKRDP; C-terminal Cys; listed as Homo sapiens) [DPV7] |  | medium internalization | cytoplasmic localization peptides |  |  |  |  | 
5 | Asn Pro Gly Val Ser Thr Val Val Leu Gly Ala Tyr Asp Leu Arg Arg Arg Glu Arg Gin Ser Arg (NPGVSTVVLGAYDLRRRERQSR; N-terminal Cys; listed as Homo sapiens) [DPV19] | did not penetrate into the bacteria |  |  |  |  | same property | do not have any internalization properties | 
6 | Gly Lys Arg Lys Lys Lys Gly Lys Leu Gly Lys Lys Arg Pro Arg Ser Arg (GKRKKKGKLGKKRPRSR; C-terminal Cys; listed as Homo sapiens) [DPV7b] |  | medium internalization | cytoplasmic localization peptides | able to pass through the external membrane |  |  |  | more internalizing in P. aeruginosa than in E. coli
7 | Gly Arg Pro Arg Glu Ser Gly Lys Lys Arg Lys Arg Lys Arg Leu Lys Pro (GRPRESGKKRKRKRLKP; C-terminal Cys; listed as Homo sapiens) [DPV6] | highly penetrating | medium internalization | cytoplasmic localization peptides |  |  |  |  | more internalizing in P. aeruginosa
8 | Gin Gly Lys Ser Lys Arg Glu Lys Lys Asp Arg Val Phe (QGKSKREKKDRVF; C-terminal Cys; listed as Homo sapiens) [DPV12] | weaker |  |  |  |  | same property | do not have any internalization properties | 
9 | Leu Arg Arg Glu Arg Gin Ser Arg Leu Arg Arg Glu Arg Gin Ser Arg (LRRERQSRLRRERQSR; C-terminal Cys; listed as Homo sapiens) [DPV15] | highly penetrating | medium internalization | nuclear localization peptides |  |  |  |  | 
10 | Val Lys Arg Gly Leu Lys Leu Arg Gin Lys Tyr Asn Lys Arg Ala Met Asp Tyr (VKRGLKLRQKYNKRAMDY; N-terminal Cys added; listed as Homo sapiens) [DPV1121] |  | weak internalization | nuclear localization peptides |  |  |  |  | 
11 | Ala Lys Thr Gly Lys Arg Lys Arg Ser Gly (AKTGKRKRSG; C-terminal Cys added; listed as Homo sapiens) [DPV11] | weaker |  |  |  |  | same property | do not have any internalization properties | 
12 | Gly Ala Tyr Asp Leu Arg Arg Arg Glu Arg Gin Ser Arg Leu Arg Arg Arg Glu Arg Gin Ser Arg (GAYDLRRRERQSRLRRRERQSR; N-terminal Cys; listed as Homo sapiens) [DPV15b] |  | weak internalization | nuclear localization peptides |  |  |  |  | 
